Where two headings read alike, the source gives them in different places. Residues, ends and D or L forms follow the SMILES beside them. *: point of attachment. Palmitoyl = CCCCCCCCCCCCCCCC(=O)*
How the values were obtained:
[1] = test system: Cx43 HCs (SK-HEP-1–Cx43 cells); assay: ATP release assay in SK-HEP-1–Cx43 transfectants (selectivity); format: cell-based, human; details: calcium-free conditions, N = 3
Text: (§1) Two cell types were chosen to assess the specificity of the Cx43 analogues. HeLa cells derived from human cervical cancer are the oldest and most commonly used immortalized cells. These cells are so-called communication-incompetent, i.e. known to not endogenously express connexins,[71] while SK-HEP-1 cells, a human liver sinusoid endothelial cell line, are devoid of Cx43 but express a small amount of Cx45.[72] Together with these parental cells, HeLa cells and SK-HEP-1 cells stably transfected with Cx43 were used (HeLa–Cx43 (ref. [73]) and SK-HEP-1–Cx43,[72] respectively). The presence and absence of Cx43 in the different cell lines were confirmed by Western blotting (Fig. 8a). The specificity of the control peptides Gap27, TAT-Gap19, αCT1 as well as the cyclic analogue 11 for Cx43 HCs was assessed through ATP release measurements in these pairs of cells, and is shown in Fig. 8b (and Table S4 ^†) for parental and HeLa–Cx43 cells and in Fig. 8c (and Table S5 ^†) for parental and SK-HEP-1–Cx43 cells. No induction of ATP release was observed when parental HeLa cells were exposed to calcium-free conditions. […] However, a doubling of ATP release was observed when parental SK-HEP-1 cells were exposed to calcium-free conditions, which was attenuated by the treatment with Cbx and all peptides, indicating an effect of the compounds on Cx45 HC. […] Nonetheless, the cardioprotective properties of αCT1 are generally ascribed to its interaction with the Cx43 protein,[23] thus it is reasonable to assume that these properties will be retained by the proteolytically stable 10 peptide.
(§2) ATP release assays were performed using previously described methods.[60] Briefly, B16-BL6 cells, HeLa cells or SK-HEP-1 cells were seeded into 96-well plates and grown until they reached confluence. […] The cells were then washed with calcium-free HBSS and incubated with aforementioned compounds in calcium-free HBSS for 30 minutes. Supernatants were collected and ATP bioluminescence measurements were performed using an ATP bioluminescence kit (Sigma-Aldrich) according to the manufacturer's instructions. ATP release under each condition was expressed as the percentage of calcium-free-induced ATP release. ATP release of cells incubated with HBSS was used as a control for basal ATP release. Triplicates were performed for each independent experiment.

[2] = target: T1, Cx43 HCs (HeLa–Cx43 cells) (Homo sapiens, UniProt P17302); assay: ATP release assay in HeLa–Cx43 transfectants (selectivity); format: cell-based; details: for ATP release, mean (Table S4, Fig. 8b), HeLa-Cx43: calcium-free conditions, N = 3
T1 construct: expressed in transfected cells
Text: as §1, §2

[3] = target: T2, Cx45 HC (parental SK-HEP-1 cells, devoid of Cx43) (Homo sapiens, UniProt P36383); assay: ATP release assay in parental SK-HEP-1 cells (selectivity); format: cell-based; details: calcium-free conditions, N = 3
T2 construct: are devoid of Cx43 but express a small amount of Cx45; endogenous in cells; host or cells: parental SK-HEP-1 cells
Text: as §1, §2

[4] = target: T3, Cx43 HCs (B16-BL6 cells endogenously expressing Cx43) (Mus musculus, UniProt P23242); assay: ATP release assay in B16-BL6 cells, hemichannels opened by calcium depletion; format: cell-based, murine
T3 construct: a murine melanoma cell line endogenously expressing Cx43; endogenous in cells; host or cells: B16-BL6 mouse melanoma cells
Procedure: The inhibitory capacity of the peptides on connexin HC activity was determined in vitro by measuring ATP release triggered by a depletion of extracellular Ca^2+, hereafter called “calcium-free” condition.[60] The assays were performed on B16-BL6 cells, a murine melanoma cell line endogenously expressing Cx43.[61] To measure ATP release, B16-BL6 cells were rinsed with a physiological Hanks' balanced salt solution (HBSS; control) followed by incubation for 5 minutes in HBSS containing the peptides. After rinsing with calcium-free HBSS (Ca-free), the cells were incubated with Ca-free containing the peptides for 30 minutes. Positive and negative control conditions included 30 minute incubation with HBSS, Ca-free without peptides or Ca-free containing 25 μM of the non-selective small-molecule inhibitor Cbx. ATP release in the supernatant was measured by bioluminescence. In order to determine the optimal concentration of peptides to be used in the assays, an initial round of testing was conducted on the control peptides αCT1, Gap27,[62]Gap19 (ref. [15]) and TAT-Gap19 (ref. [15]) as well as Cbx.[63] A doubling of ATP release was observed 30 minutes after the switch to the calcium-free solution, indicating effective Cx43 HC channel opening under these conditions (Fig. 5a and Table S1 ^†). As expected, the nonspecific connexin HC inhibitor Cbx (25 μM) reduced calcium-free-induced ATP release to nearly control conditions. At a high concentration (100 μM), Gap19, Gap27 and αCT1 had minimal to no effect on ATP release while TAT-Gap19 had the opposite effect inducing the release of ATP to a similar extent as the detergent Triton X-100 (1%). This might be due to the presence of the CPP motif, causing some disturbance at the level of the cellular membrane, and correlated with the previous findings on the use of the peptide at high concentrations.[64,65] […]
ATP release assays were performed using previously described methods.[60] […] ATP release under each condition was expressed as the percentage of calcium-free-induced ATP release. […]

[5] = test system: parental HeLa cells (no endogenous connexins); assay: ATP release assay in parental HeLa cells (selectivity); format: cell-based, human; details: calcium-free conditions, N = 3
Text: as §1, §2

Cx43 HC = details: cited from earlier work
Procedure: The inhibitory capacity of the peptides on connexin HC activity was determined in vitro by measuring ATP release triggered by a depletion of extracellular Ca^2+, hereafter called “calcium-free” condition.[60] The assays were performed on B16-BL6 cells, a murine melanoma cell line endogenously expressing Cx43.[61] To measure ATP release, B16-BL6 cells were rinsed with a physiological Hanks' balanced salt solution (HBSS; control) followed by incubation for 5 minutes in HBSS containing the peptides. After rinsing with calcium-free HBSS (Ca-free), the cells were incubated with Ca-free containing t ...

physchem = format: physicochemical; details: water
cardiac endothelium = details: binding to markers on the cell surface of the cardiac endothelium; cited from earlier work
Text: To further increase the therapeutic potential of a drug candidate, targeted delivery to the organ or tissue of interest after systemic treatment is highly desirable. The use of homing peptides, i.e. peptides that selectively bind to markers expressed on the surface of different cell types, can increase the specificity and efficacy of drug delivery, while reducing the side effects linked to off-target interactions. A wide variety of peptides homing to different tissues and pathological conditions has been identified, mostly through phage-display techniques, and used as delivery vehicles for dru ...

[6] = design: method as in PMID 34063001; details: mouse serum; cited from earlier work
[7] = peptide applied extracellularly, read-out: IC50 on Cx43-mediated ATP release

T2 sequence (P36383 whole entry): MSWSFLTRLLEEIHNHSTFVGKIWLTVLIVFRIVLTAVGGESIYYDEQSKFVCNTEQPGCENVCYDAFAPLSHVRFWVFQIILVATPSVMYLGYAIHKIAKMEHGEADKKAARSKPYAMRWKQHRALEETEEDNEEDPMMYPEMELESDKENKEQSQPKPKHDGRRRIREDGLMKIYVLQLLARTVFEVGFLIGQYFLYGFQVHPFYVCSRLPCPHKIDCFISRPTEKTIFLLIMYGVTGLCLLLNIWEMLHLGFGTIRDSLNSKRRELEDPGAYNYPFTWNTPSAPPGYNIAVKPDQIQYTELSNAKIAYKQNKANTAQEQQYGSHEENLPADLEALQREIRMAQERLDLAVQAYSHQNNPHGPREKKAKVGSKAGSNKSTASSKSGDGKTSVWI
T1 sequence (P17302 whole entry): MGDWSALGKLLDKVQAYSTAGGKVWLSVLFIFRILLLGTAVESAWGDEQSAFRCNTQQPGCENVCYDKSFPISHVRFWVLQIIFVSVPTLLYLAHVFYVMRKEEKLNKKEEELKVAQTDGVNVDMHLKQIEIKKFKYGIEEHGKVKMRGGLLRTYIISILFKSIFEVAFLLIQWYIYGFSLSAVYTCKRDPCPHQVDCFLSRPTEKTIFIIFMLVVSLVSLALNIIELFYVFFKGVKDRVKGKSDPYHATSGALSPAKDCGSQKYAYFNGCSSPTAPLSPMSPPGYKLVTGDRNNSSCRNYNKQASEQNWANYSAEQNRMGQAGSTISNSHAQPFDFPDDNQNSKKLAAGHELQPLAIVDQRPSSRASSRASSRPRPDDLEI
T3 sequence (P23242 whole entry): as the sequence (P17302 whole entry) above, with D124E, I164V, K243R, S251T, A253P, A257S, Q263P, N341S, S344A, L347V counted along it

Molecule	ATP release, mean (Table S5, Fig. 8c), SK-HEP-1-Cx43 ([1]; peptide 5 μM)	reduction of calcium-free-induced ATP release in HeLa–Cx43 cells ([2]; peptide 5 μM)	ATP release, mean (Table S4, Fig. 8b), HeLa-Cx43 ([2]; peptide 5 μM)	ATP release, mean (Table S5, Fig. 8c), Parental SK-HEP-1 ([3]; peptide 5 μM)	ATP release, mean (Table S4, Fig. 8b), Parental HeLa ([5]; peptide 5 μM)	further results
CC1(C)[C@@H](OC(=O)CCC(=O)O)CC[C@]2(C)[C@H]3C(=O)C=C4[C@@H]5C[C@@](C)(C(=O)O)CC[C@]5(C)CC[C@@]4(C)[C@]3(C)CC[C@@H]12 [Cbx, carbenoxolone]						ATP release, mean (Table S5, Fig. 8c), SK-HEP-1-Cx43 ([1]; Cbx 25 μM): 26.4826 nM; inhibition of calcium-free-induced ATP release in HeLa–Cx43 cells (in words) ([2]; Cbx 25 μM): completely inhibited; ATP release, mean (Table S4, Fig. 8b), HeLa-Cx43 ([2]; Cbx 25 μM): 2.1867 nM; ATP release, mean (Table S5, Fig. 8c), Parental SK-HEP-1 ([3]; Cbx 25 μM): 13.9931 nM; ATP release, mean normalized to calcium-free condition (Table S2, Fig. 5b) ([4]; Cbx 25 μM, calcium-free 30 min, N = 3–9): 60.4766%; ATP release, mean normalized to calcium-free condition (Table S3, Fig. 6b) ([4]; Cbx 25 μM, calcium-free 30 min, N = 5–10): 78.1965%; ATP release, mean (Table S4, Fig. 8b), Parental HeLa ([5]; Cbx 25 μM): 0.9207 nM
CC[C@H](C)[C@H](NC(=O)[C@H](CCC(=O)O)NC(=O)[C@@H](NC(=O)[C@H](CCC(N)=O)NC(=O)[C@@H](N)CCCCN)[C@@H](C)CC)C(=O)N[C@@H](CCCCN)C(=O)N[C@@H](CCCCN)C(=O)N[C@@H](Cc1ccccc1)C(=O)N[C@@H](CCCCN)C(=O)O [Gap19, H-KQIEIKKFK-OH] (H-KQIEIKKFK-OH)						IC50 (Cx43 HC; intracellular application via whole-cell recording pipette, read-out: IC50 when applied intracellularly via a whole-cell recording pipette): 7 µM; IC50 (Cx43 HC; [7]): ~50 µM
CC[C@H](C)[C@H](NC(=O)[C@@H](NC(=O)[C@H](Cc1ccccc1)NC(=O)[C@@H](NC(=O)[C@@H](NC(=O)[C@H](CCCCN)NC(=O)[C@H](CCC(=O)O)NC(=O)[C@@H](NC(=O)[C@@H]1CCCN1C(=O)[C@H](CCCNC(=N)N)NC(=O)[C@@H](N)CO)[C@@H](C)O)[C@@H](C)O)[C@@H](C)CC)[C@@H](C)CC)C(=O)O [Gap27] (H-SRPTEKTIFII-OH)	36.9304 nM	40–45%	9.3690 nM	8.5784 nM	0.9529 nM	
CCCCCCCCCCCCCCCC(=O)N[C@@H](CCCCN)C(=O)N[C@@H](CCC(N)=O)C(=O)N[C@H](C(=O)N[C@@H](CCC(=O)O)C(=O)N[C@H](C(=O)N[C@@H](CCCCN)C(=O)N[C@@H](CCCCN)C(=O)N[C@@H](Cc1ccccc1)C(=O)N[C@@H](CCCCN)C(=O)O)[C@@H](C)CC)[C@@H](C)CC [Palm-Gap19] (Palmitoyl-KQIEIKKFK-OH)						solubility (physchem): ≥ 100 µM
CC[C@H](C)[C@H](NC(=O)[C@H](CCC(=O)O)NC(=O)[C@@H](NC(=O)[C@H](CCC(N)=O)NC(=O)[C@H](CCCCN)NC(=O)[C@H](CCCNC(=N)N)NC(=O)[C@H](CCCNC(=N)N)NC(=O)[C@H](CCCNC(=N)N)NC(=O)[C@H](CCC(N)=O)NC(=O)[C@H](CCCNC(=N)N)NC(=O)[C@H](CCCNC(=N)N)NC(=O)[C@H](CCCCN)NC(=O)[C@H](CCCCN)NC(=O)[C@H](CCCNC(=N)N)NC(=O)CNC(=O)[C@@H](N)Cc1ccc(O)cc1)[C@@H](C)CC)C(=O)N[C@@H](CCCCN)C(=O)N[C@@H](CCCCN)C(=O)N[C@@H](Cc1ccccc1)C(=O)N[C@@H](CCCCN)C(=O)O [TAT-Gap19] (H-YGRKKRRQRRRKQIEIKKFK-OH)	55.5511 nM	40–45%	10.9629 nM	15.3639 nM	1.3701 nM	IC50 (Cx43 HC; [7]): 7 µM
CC(=O)N[C@@H](CO)C(=O)N[C@@H](CCCNC(=N)N)C(=O)N1CCC[C@H]1C(=O)N[C@@H](CCCNC(=N)N)C(=O)N1C[C@@H]2C[C@H]1C(=O)N[C@@H](CC(=O)O)C(=O)N[C@@H](CC(=O)O)C(=O)N[C@@H](CC(C)C)C(=O)N[C@@H](CCC(=O)O)C(=O)N[C@H](C(N)=O)Cc1cn2nn1 [compound 11]	38.4712 nM	40–45%	8.7419 nM	7.9522 nM	1.5371 nM	
CRPPR [cardiac endothelium-homing pentapeptide]						selectivity of targeting the heart (cardiac endothelium): > 300 fold
H-RPRPDDLEI-OH [αCT11]						time in which the peptide was found to be degraded [6]: 30 min
H-RQPKIWFPNRRKPWKKRPRPDDLEI-OH [αCT1]	39.5655 nM	40–45%	9.6282 nM	6.6804 nM	1.6218 nM	
Triton X-100						ATP release, mean normalized to calcium-free condition (Table S1, Fig. 5a) ([4]; Triton X-100 1%, cell lysis control, N = 3–9): 248.6069%
